Experimental data from PubChem BioAssay (NCI).
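Following 48 hours of exposure in 96-well plates, responses at five concentrations were used to interpolate endpoints linearly. Abbreviation: GI50, concentration required for 50% inhibition of growth. At the TGI there is no net growth.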

Columns and labels:
Test in all cases: DTP human tumour cell line panel, 48 h
[1] = tested on: PC-3 prostate
[2] = tested on: ACHN renal
[3] = tested on: OVCAR-3 ovarian
[4] = tested on: NCI-H226 lung
[5] = tested on: U251 CNS
[6] = tested on: M14 melanoma
[7] = tested on: TK-10 renal
[8] = tested on: 786-0 renal
[9] = tested on: BT-549 breast
[10] = tested on: NCI-H522 lung
[11] = tested on: NCI-H23 lung
[12] = tested on: RXF 393 renal
[13] = tested on: UACC-257 melanoma
[14] = tested on: HCT-15 colon
[15] = tested on: LOX IMVI melanoma
[16] = tested on: HT29 colon
[17] = tested on: CAKI-1 renal
[18] = tested on: HOP-62 NSCLC
[19] = tested on: NCI-H460 lung
[20] = tested on: T-47D breast
[21] = tested on: MCF7 breast
[22] = tested on: SN12C renal
[23] = tested on: SNB-75 CNS
[24] = tested on: UO-31 renal
[25] = tested on: DU-145 prostate
[26] = tested on: SK-MEL-5 melanoma
[27] = tested on: MALME-3M melanoma
[28] = tested on: COLO 205 colon
[29] = tested on: MDA-MB-435
[30] = tested on: UACC-62 melanoma
[31] = tested on: HS 578T breast
[32] = tested on: A549 NSCLC
[33] = tested on: SF-295 CNS
[34] = tested on: SF-539 CNS
[35] = tested on: K-562 leukemia
[36] = tested on: KM12 colon
[37] = tested on: CCRF-CEM leukemia
[38] = tested on: SK-MEL-2 melanoma
[39] = tested on: RPMI-8226 leukemia
[40] = tested on: HL-60(TB) leukemia
[41] = tested on: HCC-2998 colon
[42] = tested on: MDA-MB-231 breast
[43] = tested on: SK-MEL-28 melanoma
[44] = tested on: MOLT-4 leukemia
[45] = tested on: SF-268 CNS
[46] = tested on: HOP-92 NSCLC
[47] = tested on: SK-OV-3 ovarian
[48] = tested on: OVCAR-8 ovarian
[49] = tested on: A498 renal
[50] = tested on: SNB-19 CNS
[51] = tested on: OVCAR-4 ovarian
[52] = tested on: NCI/ADR-RES ovarian
[53] = tested on: EKVX NSCLC
[54] = tested on: OVCAR-5 ovarian
[55] = tested on: SW-620 colon
[56] = tested on: HCT-116 colon
[57] = tested on: IGROV1 ovarian
[58] = tested on: SR leukemia

CN1CCCN(C(c2ccccc2)c2ccc(Br)cc2)CC1 (configuration not stated)
GI50 [1]: 2.87 µM
TGI [1]: 13.5 µM
GI50 [2]: 3.62 µM
TGI [2]: 14.1 µM
GI50 [3]: 2.83 µM
TGI [3]: 10.2 µM
GI50 [4]: 7.23 µM
TGI [4]: 20.8 µM
GI50 [5]: 3 µM
TGI [5]: 10.3 µM
GI50 [6]: 1.61 µM
TGI [6]: 2.99 µM
GI50 [7]: 10.4 µM
TGI [7]: 22.7 µM
GI50 [8]: 3.94 µM
TGI [8]: 14 µM
GI50 [9]: 4.89 µM
TGI [9]: 19.4 µM
GI50 [10]: 3.62 µM
TGI [10]: 13.9 µM
GI50 [11]: 10.3 µM
TGI [11]: 22.1 µM
GI50 [12]: 2.65 µM
TGI [12]: 8.67 µM
GI50 [13]: 2.41 µM
TGI [13]: 5.41 µM
GI50 [14]: 3.49 µM
TGI [14]: 14 µM
GI50 [15]: 2.85 µM
TGI [15]: 10.1 µM
GI50 [16]: 2.92 µM
TGI [16]: 13.1 µM
GI50 [17]: 3.24 µM
TGI [17]: 13.4 µM
GI50 [18]: 6.52 µM
TGI [18]: 19.3 µM
GI50 [19]: 6.55 µM
TGI [19]: 19 µM
GI50 [20]: 3.18 µM
TGI [20]: 19.2 µM
GI50 [21]: 2.63 µM
TGI [21]: 10 µM
GI50 [22]: 3.51 µM
TGI [22]: 12.5 µM
GI50 [23]: 3.1 µM
TGI [23]: 17.9 µM
GI50 [24]: 2.65 µM
TGI [24]: 16 µM
GI50 [25]: 10.5 µM
TGI [25]: 22.3 µM
GI50 [26]: 1.85 µM
TGI [26]: 3.74 µM
GI50 [27]: 2.57 µM
TGI [27]: 11.8 µM
GI50 [28]: 3.93 µM
TGI [28]: 16.2 µM
GI50 [29]: 1.87 µM
TGI [29]: 3.83 µM
GI50 [30]: 2.03 µM
TGI [30]: 4.35 µM
GI50 [31]: 2.37 µM
TGI [31]: 6.35 µM
GI50 [32]: 10.9 µM
TGI [32]: 25.6 µM
GI50 [33]: 3.52 µM
TGI [33]: 14.5 µM
GI50 [34]: 3.09 µM
TGI [34]: 11.1 µM
GI50 [35]: 5.04 µM
TGI [35]: > 100 µM
GI50 [36]: 2.73 µM
TGI [36]: 7.09 µM
GI50 [37]: 4.14 µM
TGI [37]: 18.9 µM
GI50 [38]: 3.66 µM
TGI [38]: 11.3 µM
GI50 [39]: 9.04 µM
TGI [39]: 36.2 µM
GI50 [40]: 3.52 µM
TGI [40]: 34.1 µM
GI50 [41]: 4.55 µM
TGI [41]: 16 µM
GI50 [42]: 2.41 µM
TGI [42]: 7.81 µM
GI50 [43]: 2.43 µM
TGI [43]: 5.97 µM
GI50 [44]: 3.92 µM
TGI [44]: 58.2 µM
GI50 [45]: 2.76 µM
TGI [45]: 8.97 µM
GI50 [46]: 0.635 µM
TGI [46]: 7.73 µM
GI50 [47]: 3.66 µM
TGI [47]: 14.5 µM
GI50 [48]: 6.5 µM
TGI [48]: 21 µM
GI50 [49]: 5.86 µM
TGI [49]: 17.9 µM
GI50 [50]: 14.8 µM
TGI [50]: 28 µM
GI50 [51]: 7.63 µM
TGI [51]: 20.5 µM
GI50 [52]: 3.09 µM
GI50 [53]: 4.94 µM
TGI [53]: 19.6 µM
GI50 [54]: 10.7 µM
TGI [54]: 22.5 µM
GI50 [55]: 2.9 µM
TGI [55]: 10.6 µM
GI50 [56]: 1.84 µM
TGI [56]: 4.23 µM
GI50 [57]: 8.83 µM
TGI [57]: 22.1 µM

CC1(C)C2CCC1(CC(=O)O)C(Cl)C2 (configuration not stated)
TGI [1]: > 100 µM
TGI [2]: > 100 µM
TGI [3]: > 100 µM
TGI [4]: > 100 µM
TGI [5]: > 100 µM
TGI [6]: > 100 µM
TGI [7]: > 100 µM
TGI [8]: > 100 µM
TGI [9]: > 100 µM
TGI [10]: > 100 µM
TGI [11]: > 100 µM
TGI [12]: > 100 µM
TGI [13]: > 100 µM
TGI [14]: > 100 µM
TGI [15]: > 100 µM
TGI [16]: > 100 µM
TGI [17]: > 100 µM
TGI [18]: > 100 µM
TGI [19]: > 100 µM
TGI [20]: > 100 µM
TGI [21]: > 100 µM
TGI [22]: > 100 µM
TGI [23]: > 100 µM
TGI [24]: > 100 µM
TGI [25]: > 100 µM
TGI [26]: > 100 µM
TGI [27]: > 100 µM
TGI [28]: > 100 µM
TGI [29]: > 100 µM
TGI [30]: > 100 µM
TGI [31]: > 100 µM
TGI [32]: > 100 µM
TGI [33]: > 100 µM
TGI [34]: > 100 µM
TGI [35]: > 100 µM
TGI [36]: > 100 µM
TGI [37]: > 100 µM
TGI [38]: > 100 µM
TGI [39]: > 100 µM
TGI [40]: > 100 µM
TGI [41]: > 100 µM
TGI [42]: > 100 µM
TGI [43]: > 100 µM
TGI [44]: > 100 µM
TGI [45]: > 100 µM
TGI [47]: > 100 µM
TGI [48]: > 100 µM
TGI [49]: > 100 µM
TGI [50]: > 100 µM
TGI [51]: > 100 µM
TGI [52]: > 100 µM
TGI [53]: > 100 µM
TGI [54]: > 100 µM
TGI [55]: > 100 µM
TGI [56]: > 100 µM
TGI [57]: > 100 µM

CCCCP(CCCC)(CCCC)=C(C(=O)OC)C(C(=O)OC)=C1SC(C(=O)OC)=C(C(=O)OC)S1
TGI [1]: 51 µM
TGI [2]: 54.3 µM
TGI [3]: 53.1 µM
TGI [4]: 45 µM
TGI [5]: 29.5 µM
TGI [6]: 30.2 µM
TGI [7]: > 100 µM
TGI [8]: 40 µM
TGI [9]: 30.9 µM
TGI [10]: 49.6 µM
TGI [11]: 45.4 µM
TGI [12]: 22.8 µM
TGI [13]: 37.3 µM
TGI [14]: 96 µM
TGI [15]: 28.5 µM
TGI [16]: 30.7 µM
TGI [18]: 49.3 µM
TGI [19]: 35.9 µM
TGI [58]: > 100 µM
TGI [20]: 43.7 µM
TGI [21]: 30.9 µM
TGI [22]: 29.8 µM
TGI [23]: 45.4 µM
TGI [24]: 51.4 µM
TGI [25]: > 100 µM
TGI [26]: 29.7 µM
TGI [27]: 41.1 µM
TGI [28]: 45.5 µM
TGI [29]: 28.1 µM
TGI [30]: 27.1 µM
TGI [31]: 43.7 µM
TGI [32]: 40.1 µM
TGI [33]: 36.3 µM
TGI [38]: 63.1 µM
TGI [39]: > 100 µM
TGI [42]: 35.7 µM
TGI [43]: 29.8 µM
TGI [44]: 44.5 µM
TGI [45]: > 100 µM
TGI [47]: 75.8 µM
TGI [48]: 48.8 µM
TGI [50]: 49 µM
TGI [51]: 52.5 µM
TGI [53]: 68.5 µM
TGI [54]: 52.5 µM
TGI [55]: 87 µM
TGI [56]: 31.9 µM
TGI [57]: 23.8 µM
